For data set [1], the system named is HEPG2. In words: Cytotoxicity assay (CellTiter-Glo), HEPG2. It is filed as cell-based, human. As to conditions: 48 hours incubation. How it is done: Human liver hepatocellular carcinoma (HEPG2) and human embryonic kidney 293 (HEK293) cell lines were purchased (ATCC) and cultured in 75 cm2 flasks (CellStar). Cells were grown in DMEM/High Glucose (Hyclone, #SH3024301) media to which non-essential amino acids (Hyclone, #SH30238.01), 10 mM HEPES (Hyclone, #SH302237.01), 5×106 units of penicillin and streptomycin (Hyclone, #SV30010), and 10% of heat inactivated fetal bovine serum (Gibco, #10082147) were added. Cells were harvested using 0.05% Trypsin (Hyclone, #SH3023601), washed with PBS, and dispensed into sterile white, optical bottom 384-well plates (NUNC, #142762). After three hours, small molecule solutions were transferred with a Tecan Freedom EVO liquid handling system equipped with a 100 nL pin tool (V&P Scientific). The controls (E)-10-(bromotriphenylphosphoranyl)decyl 4-(4-(tert-butyl)phenyl)-4-oxobut-2-enoate (400 μM in DMSO, positive control) and DMSO (negative control). The cells were incubated for 48 hours followed by the addition of CellTiter-Glo™, a luminescence-based cell viability assay (Promega, Madison, Wis.). All luminescence readings were performed on a Tecan Infinite M1000 plate reader. The assay was carried out in quadruplet with three independent runs. The data was normalized to the controls and analyzed by nonlinear regression (GraphPad Prism).

Data set [2] deals with C57B1/6 male mice. In words: Forced swim test (FST). As to conditions: vs vehicle. It is filed as in vivo, mouse. How it is done:
C57B1/6 male mice were ordered from Jackson Laboratories at 8 weeks-old and were group housed (4-5 mice/cage) under normal housing conditions (12 h light ON cycle starting at 7 am/water and food ad libitum) for one week. During this week, animals were handled in order to habituate them to the experimenter and to reduce their anxiety-like response during behavioral testing.
All drugs were diluted in a vehicle solution containing 85% H2O, 14% propylene glycol (Sigma Aldrich) and 1% Tween 80 (Sigma Aldrich). Working solutions were prepared at a concentration of 20 mg/mL and administered i.p. adjusted to the body weight of each animal. Doses used were either 1, 5 or 10 mg/kg. For all FST experiments, animals were injected i.p. with vehicle or αPAM.
Mice were tested in the forced swim test (FST) (measure of despair-like behavior used for the assessment of antidepressant efficacy). Animals were sub-chronically injected three times (24, 20 and 1 hour before testing) as per standard methods in the field for testing potential antidepressant compounds.
One hour after the last injection, mice were placed in an inescapable transparent tank filled with water (25 cm, 25-26° C.), where they are unable to touch the bottom and unable to jump out of the tank. Animal were recorded for a period of 6 minutes and a manual count of the immobile time in the tank was measured for the 2-6 minutes period by an experimenter blinded to the mouse treatment history. Immobility is defined as the minimum amount of movement to stay afloat. Compounds that reduced immobility in the FST are considered to have potential antidepressant actions.

Data set [3] deals with T1, alpha 5 subunit GABAA receptor (Rattus norvegicus, UniProt P18508+P19969).
T1 construct: Full-length cDNAs for GABAA receptor subtypes; expressed in transfected cells; host or cells: HEK-293T (GenHunter, Nashville, Tenn.), transient calcium phosphate transfection
T1 sequence (P19969 32-464 limits assumed): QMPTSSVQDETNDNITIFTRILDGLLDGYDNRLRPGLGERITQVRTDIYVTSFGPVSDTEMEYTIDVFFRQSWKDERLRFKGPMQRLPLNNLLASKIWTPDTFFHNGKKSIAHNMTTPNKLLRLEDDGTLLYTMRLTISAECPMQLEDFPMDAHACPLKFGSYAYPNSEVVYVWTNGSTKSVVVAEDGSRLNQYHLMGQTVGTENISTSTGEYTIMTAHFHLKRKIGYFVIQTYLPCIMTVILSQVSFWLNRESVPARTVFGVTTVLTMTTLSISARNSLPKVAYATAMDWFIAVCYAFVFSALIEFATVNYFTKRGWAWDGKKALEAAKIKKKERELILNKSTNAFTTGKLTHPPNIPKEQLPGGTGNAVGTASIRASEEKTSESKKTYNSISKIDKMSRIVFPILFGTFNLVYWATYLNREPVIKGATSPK
T1 sequence (P63079 26-473 partner): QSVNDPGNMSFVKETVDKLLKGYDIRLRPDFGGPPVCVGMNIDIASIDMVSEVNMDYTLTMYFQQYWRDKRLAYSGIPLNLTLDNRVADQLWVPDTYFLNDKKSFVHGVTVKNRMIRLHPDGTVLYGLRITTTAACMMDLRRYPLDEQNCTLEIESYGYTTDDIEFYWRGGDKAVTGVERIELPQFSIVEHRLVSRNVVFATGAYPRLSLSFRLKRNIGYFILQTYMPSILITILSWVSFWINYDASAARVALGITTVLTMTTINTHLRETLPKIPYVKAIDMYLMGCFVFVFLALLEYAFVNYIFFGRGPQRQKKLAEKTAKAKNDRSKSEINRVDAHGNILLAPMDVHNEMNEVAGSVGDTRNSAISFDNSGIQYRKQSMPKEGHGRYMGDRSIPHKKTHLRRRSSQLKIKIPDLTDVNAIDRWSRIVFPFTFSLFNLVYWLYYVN
T1 sequence (P18508 39-466): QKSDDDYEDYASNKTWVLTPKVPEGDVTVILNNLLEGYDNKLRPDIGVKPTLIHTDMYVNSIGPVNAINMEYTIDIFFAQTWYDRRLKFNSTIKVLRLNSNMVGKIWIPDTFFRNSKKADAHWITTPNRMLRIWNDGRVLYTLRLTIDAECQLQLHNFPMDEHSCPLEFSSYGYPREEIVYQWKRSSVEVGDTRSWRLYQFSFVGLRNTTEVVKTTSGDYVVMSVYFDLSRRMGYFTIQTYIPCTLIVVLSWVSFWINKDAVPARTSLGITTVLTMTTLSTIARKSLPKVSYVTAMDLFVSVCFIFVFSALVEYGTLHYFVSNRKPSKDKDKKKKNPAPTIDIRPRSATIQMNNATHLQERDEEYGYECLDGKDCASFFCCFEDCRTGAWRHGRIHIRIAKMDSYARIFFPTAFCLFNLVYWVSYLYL
Kind of data set: Electrophysiology, whole-cell patch clamp in transfected HEK-293T cells. Type of data set: cell-based. As to conditions: for percent of response to GABA: 1 μM compound, HEK-293T cells transfected with alpha 5 subunit; for relative size of response to GABA among the four compounds: 1 μM, alpha 5, FIG. 26. From the text:
Transfection of Mammalian Cells and Electrophysiological Recordings. Full-length cDNAs for GABAA receptor subtypes (generously provided by Dr. Robert Macdonald, Vanderbilt University and Dr. David Weiss, University of Texas Health Science Center, San Antonio, Tex.) in mammalian expression vectors were transfected into the human embryonic kidney cell line HEK-293T (GenHunter, Nashville, Tenn.) (Chestnut et al, 1996, J. Immunol. Methods 193, 17-27). All subtypes were rat clones except for α2, which was a human clone. Cells were maintained in Dulbecco's modified Eagle's medium (DMEM) plus 10% fetal bovine serum, 100 IU/mL penicillin, and 100 μg/mL streptomycin.
HEK-293T cells were transiently transfected using calcium phosphate precipitation. Plasmids encoding GABAA receptor subtype cDNAs were added to the cells in 1:1:1 ratios (α:β:γ) of 2 μg each.31 For identification of positively transfected cells, 1 μg of the plasmid pHook-1 (Invitrogen Life Technologies, Grand Island N.Y.) containing cDNA encoding the surface antibody sFv was also transfected into the cells.11 Following a 4-6 h incubation at 3% CO2, the cells were treated with a 15% glycerol solution in BBS buffer (50 mM BES(N,N-bis[2-hydroxyethyl]-2-aminoethanesulfonic acid), 280 mM NaCl, 1.5 mM Na2HPO4) for 30 s. The selection procedure for pHook expression was performed 18-52 h later. The cells were passaged and mixed for 30-60 min with 3-5 μL of magnetic beads coated with antigen for the pHook antibody (approximately 6×105 beads).11 Bead-coated cells were isolated using a magnetic stand. The selected cells were resuspended into supplemented DMEM, plated onto glass coverslips treated with poly L-lysine and collagen, and used for recordings the next day.
Cells were patch-clamped at −50 mV in the whole-cell recording configuration. The bath solution consisted of (in mM): 142 NaCl, 8.1 KCl, 6 MgCl2, 1 CaCl2), and 10 HEPES (4-(2-hydroxyethyl)-1-piperazineethanesulfonic acid) with pH=7.4 and osmolarity adjusted to 295-305 mOsm. Recording electrodes were filled with a solution of (in mM) 153 KCl, 1 MgCl2, 5 K-EGTA (ethylene glycol-bis(β-aminoethyl ether N,N,N′N′-tetraacetate), and 10 HEPES with pH=7.4 and osmolarity adjusted to 295-305 mOsm. GABA was diluted into the bath solution from freshly made or frozen stocks in water. Compounds were dissolved in DMSO and diluted into bath solution with the highest DMSO level applied to cells of 0.01%. Patch pipettes were pulled from borosilicate glass (World Precision Instruments, Sarasota, Fla.) on a two-stage puller (Narishige, Japan) to a resistance of 5-10 MO. Solutions containing GABA or GABA+ compounds were applied to cells for 5 s. using a 3-barrelled solution delivery device controlled by a computer-driven stepper motor (SF-77B, Harvard Apparatus, Holliston, Mass., open tip exchange time of <50 ms). There was a continuous flow of external solution through the chamber. Currents were recorded with an Axon 200B (Foster City, Calif.) patch clamp amplifier.
Whole-cell currents were analyzed using the programs Clampfit (pClamp9 suite, Axon Instruments, Foster City, Calif.) and Prism (Graphpad, San Diego, Calif.). Concentration-response data was fit with a four-parameter logistic equation (current=[minimum current+(maximum current−minimum current)]/1+(10(logEC50−log[modulator])n) where n represents the Hill number. All fits were made to normalized data with current expressed as a percentage of the response to GABA alone for each cell.

Setting [4] is: 5 mg/kg i.p. 24, 20, 1 hour before testing.
Setting [5] is: 10 mg/kg i.p. 24, 20, 1 hour before testing.

The results in this text go back to patent publication US10906909B2, “Treatment of cognitive and mood symptoms in neurodegenerative and neuropsychiatric disorders with ALPHA5-containing GABAA receptor agonists” (UWM Research Foundation, Inc., priority 2016, dated 2021).

Entries after “also recorded” stand apart in the source; their conditions may differ.

For the compound `C#Cc1ccc2c(c1)C(c1ccccc1F)=N[C@@H](C)c1c(C(=O)N(C)C)ncn1-2` [GL-I-54, (S)-8-ethynyl-6-(2-fluorophenyl)-N,N,4-trimethyl-4H-benzo[f]imidazo[1,5-a][1,4]diazepine-3-carboxamide], the “HEPG2 LD50” value in data set [1] is above 400 µM. Moreover, the “time spent immobile in the FST” value in data set [2] (setting [4]) is “significant decrease in immobility time; also recorded: significant antidepressant-like action”.
For the compound `C#Cc1ccc2c(c1)C(c1ccccc1F)=N[C@H](C)c1c(C(=O)N(C)C)ncn1-2` [GL-II-73, (R)-8-ethynyl-6-(2-fluorophenyl)-N,N,4-trimethyl-4H-benzo[f]imidazo[1,5-a][1,4]diazepine-3-carboxam], in data set [1], the “HEPG2 LD50” value is above 400 µM. The “time spent immobile in the FST” value in data set [2] (setting [5]) was “significantly decreased the immobility; also recorded: significant antidepressant-like efficacy”. In data set [3], the “percent of response to GABA” value is “increased in the percent of response to GABA” and the “relative size of response to GABA among the four compounds” value (from here on “relative size of response”) is “greatest response”.
In the case of `C#Cc1ccc2c(c1)C(c1ccccc1F)=N[C@H](C)c1c(C(=O)NCC)ncn1-2` [GL-II-74, (R)—N-ethyl-8-ethynyl-6-(2-fluorophenyl)-4-methyl-4H-benzo[f]imidazo[1,5-a][1,4]diazepine-3-carboxamide], in data set [2] (setting [4]), the “time spent immobile in the FST” value is on record as “significantly decreased the immobility; also recorded: significant antidepressant-like efficacy”. For the same compound, the “time spent immobile in the FST” value in data set [2] (setting [5]) is reported as “significantly decreased the immobility; also recorded: significant antidepressant-like efficacy”. Also, in data set [3], the “percent of response to GABA” value was “increased in the percent of response to GABA” and the “relative size of response” value is reported as “greatest response”.
Turning to `C#Cc1ccc2c(c1)C(c1ccccc1F)=N[C@H](C)c1c(C(=O)NC3CC3)ncn1-2` [GL-II-75, (R)—N-cyclopropyl-8-ethynyl-6-(2-fluorophenyl)-4-methyl-4H-benzo[f]imidazo[1,5-a][1,4]diazepine-3-carboxamide], the “time spent immobile in the FST” value in data set [2] (setting [4]) and in data set [2] (setting [5]) was “significantly decreased the immobility; also recorded: significant antidepressant-like efficacy” in each case. The “percent of response to GABA” value in data set [3] was “increased in the percent of response to GABA”. For the same compound, in data set [3], the “relative size of response” value is “greatest response”.
Take `C#Cc1ccc2c(c1)C(c1ccccc1F)=N[C@H](C)c1c(C(=O)N3CCCC3)ncn1-2` [GL-II-76, (R)-(8-ethynyl-6-(2-fluorophenyl)-4-methyl-4H-benzo[f]imidazo[1,5-a][1,4]diazepin-3-yl)(pyrrolidin-1-yl)methanone]: in data set [1], the “HEPG2 LD50” value is above 400 µM. The “percent of response to GABA” value in data set [3] is listed as “increased in the percent of response to GABA”.
`C#Cc1ccc2c(c1)C(c1ccccc1F)=N[C@H](C)c1c(C(=O)NC)ncn1-2` [MP-III-022]: the “HEPG2 LD50” value in data set [1] was above 200 µM. The “time spent immobile in the FST” value in data set [2] (setting [5]) was “significant decrease in immobility time; also recorded: significant antidepressant-like action”.
